According to patent US9283037B2, “Laser microporator” (PANTEC BIOSOLUTIONS AG, priority 2006, dated 2016):

Assay: Serum concentration of drug over time after transdermal patch application onto laser-microporated skin (FIG. 9a-9b)
Type: in vivo, human
Settings: over about two hours
Method: The drug is entering the permeation surface by passive diffusion. The amount of drug entering the permeation surface is mainly determined by the permeation surface A(t) over time. Therefore, the serum concentration as a function of time can be determined by an appropriate poration of the skin 1 with an initial microporation at time TP.
FIG. 9a to 9b show the administration of the same amount of drug, for example 100 mg acetylsalicylic acid, the drug being arranged on the skin 1 as disclosed in FIG. 5e. Depending on the permeation surface A(t) as a function of time, the level of the serum concentration as well as the time period within which the drug is released, can be predescribed. In FIG. 9a the permeation surface A(t) is chosen such that the maximal serum concentration is about 25 g/l over a short period of time of about two hours. […] A further advantage is that the same amount of drug, e.g. the same patch, applied onto the skin 1, causes a different serum concentration, depending only on the function of the permeation surface A over time. This allows administering the same drug in different ways. This also allows administering the same drug in an individual way, in that the permeation surface is created depending on individual parameters of the person the drug is applied to.

CC(=O)Oc1ccccc1C(=O)O [acetylsalicylic acid]
maximal serum concentration (FIG. 9a, 100 mg acetylsalicylic acid in patch on microporated skin, transdermal application, chosen permeation surface A(t)): about 25 g/l
maximal serum concentration (FIG. 9b, fast application (turbo), same amount of drug (100 mg) in patch on microporated skin): about 30 g/l
